How the values were obtained:
[1] = system: A549 (lung carcinoma cell line); assay: MTT cytotoxicity assay, A549; type: cell-based; conditions: Homo sapiens, A549, MTT assay, read-out: IC50 against A549
Method: (§1) The anticancer activity of compounds 5a–5o were screened according to the MTT assays. The MTT assays were performed as previously described[32]^,[33]. Anticancer activity of final compounds was assessed against five different cancer cell lines A549 (lung carcinoma cell line), HeLa (cervical cell line), MCF-7 (human breast adenocarcinoma cell line), HepG2 (human liver carcinoma cell line) and C6 (rat glioma cell line) cell lines as well as NIH3T3 (mouse embryo fibroblast cell line). Doxorubicin and Hoechst 33342 were used as the reference drugs in the MTT assays.
(§2) The benzimidazole-1,3,4-oxadiazole derivatives (5a-5o) were tested their cytotoxic effects in vitro using five cancer cell line A549 (lung carcinoma cell line), HeLa (cervical cell line), MCF-7 (human breast adenocarcinoma cell line), HepG2 (human liver carcinoma cell line) and C6 (rat glioma cell line) cell lines as well as NIH3T3 (mouse embryo fibroblast cell line). Doxorubicin and Hoechst 33342 were used for this study as a reference drugs.

[2] = system: MCF-7 (human breast adenocarcinoma cell line); assay: MTT cytotoxicity assay, MCF-7; type: cell-based; conditions: Homo sapiens, MCF7, MCF-7 cell line, read-out: IC50 against MCF-7
Method: as §1, §2

[3] = system: C6 (rat glioma cell line); assay: MTT cytotoxicity assay, C6; type: cell-based; conditions: Rattus norvegicus, read-out: IC50 against C6
Method: as §1, §2

[4] = system: HepG2 (human liver carcinoma cell line); assay: MTT cytotoxicity assay, HepG2; type: cell-based; conditions: Homo sapiens, read-out: IC50 against HepG2
Method: as §1, §2

[5] = system: HeLa (cervical cell line); assay: MTT cytotoxicity assay, HeLa; type: cell-based; conditions: Homo sapiens, read-out: IC50 against HeLa
Method: as §1, §2

[6] = system: NIH3T3 (mouse embryo fibroblast cell line); assay: MTT cytotoxicity assay, NIH3T3 healthy cells; type: cell-based; conditions: Mus musculus, read-out: IC50 against NIH3T3
Method: The anticancer activity of compounds 5a–5o were screened according to the MTT assays. The MTT assays were performed as previously described[32]^,[33]. Anticancer activity of final compounds was assessed against five different cancer cell lines A549 (lung carcinoma cell line), HeLa (cervical cell line), MCF-7 (human breast adenocarcinoma cell line), HepG2 (human liver carcinoma cell line) and C6 (rat glioma cell line) cell lines as well as NIH3T3 (mouse embryo fibroblast cell line). Doxorubicin and Hoechst 33342 were used as the reference drugs in the MTT assays. It is crucial that an anticancer agent affects the cancer cell line but having minimal or no side-effect on healthy cells. For this purpose, the cytotoxic effects of the active compounds on the NIH3T3 cell line were investigated (Table 2).

MCF-7 cell line = assay: Flow cytometric analysis (Annexin V/PI), MCF-7; type: cell-based, human; conditions: MCF-7 cells
Method: Death pathway of the carcinogenic cell lines was detected by Annexin V-FITC Apoptosis Detection Kit (BD, Pharmingen) as reported previously described. […] FCS Express software was used to display the percent of normal and apoptotic cells at different stages. […] The experiments were carried out in triplicates.
Annexin V/PI staining on tested cancer cells treated with the active compounds was performed to investigate induction of apoptosis. […] According to the MTT assay, compound 5n for A549 cell line; compounds 5a, 5d, 5e, 5o for MCF-7 cell line; compound 5k for C6 cell line; compound 5a for HepG2 cell line; compounds 5b, 5l and 5n for HeLa cell line were selected for the flow cytometric analysis. Furthermore, flow cytometry studies were performed for reference drug doxorubicin. Flow cytometric analysis diagrams of tested compounds and doxorubicin at IC50/2, IC50, and 2xIC50 concentrations on cancer cells were presented in Figures 7–11.

Topoisomerase I = target: T1, Topoisomerase I (Homo sapiens, UniProt P11387); assay: DNA topoisomerase I assay (relaxation of supercoiled plasmid DNA, agarose gel); type: biochemical; conditions: agarose gel electrophoresis, camptothecin positive control, Figure 12
T1 construct: purchased TopoGen TG1018-2
T1 sequence (P11387 1-765): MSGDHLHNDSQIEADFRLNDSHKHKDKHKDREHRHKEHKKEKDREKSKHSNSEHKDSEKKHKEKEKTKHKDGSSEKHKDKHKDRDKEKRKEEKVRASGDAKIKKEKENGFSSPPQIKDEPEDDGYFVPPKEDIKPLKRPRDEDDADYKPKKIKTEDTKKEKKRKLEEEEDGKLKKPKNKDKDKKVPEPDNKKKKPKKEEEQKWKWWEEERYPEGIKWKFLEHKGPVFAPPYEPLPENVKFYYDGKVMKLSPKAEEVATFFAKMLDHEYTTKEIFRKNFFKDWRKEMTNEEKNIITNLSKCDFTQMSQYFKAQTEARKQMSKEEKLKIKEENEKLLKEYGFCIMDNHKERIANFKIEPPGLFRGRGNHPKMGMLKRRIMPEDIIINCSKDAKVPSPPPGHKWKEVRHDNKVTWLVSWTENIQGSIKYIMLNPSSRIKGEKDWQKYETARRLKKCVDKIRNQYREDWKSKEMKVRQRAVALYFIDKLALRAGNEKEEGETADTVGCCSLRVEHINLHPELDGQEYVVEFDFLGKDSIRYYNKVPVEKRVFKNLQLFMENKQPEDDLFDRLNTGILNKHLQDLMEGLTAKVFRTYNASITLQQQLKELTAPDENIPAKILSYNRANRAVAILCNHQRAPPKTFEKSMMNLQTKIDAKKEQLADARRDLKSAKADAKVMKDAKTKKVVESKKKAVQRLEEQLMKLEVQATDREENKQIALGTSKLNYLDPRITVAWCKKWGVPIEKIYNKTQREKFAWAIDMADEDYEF
Method: The topoisomerase I inhibition activities of final compounds were measured as relaxation of supercoiled plasmid DNA using agarose gel electrophoresis and camptothecin was used as a positive control. The assay was carried out in a final volume of 20 µl reaction volume containing 2 µl of 10xTGS Buffer, 6 µl water, 2 µl supercoiled plasmid DNA, 2 µl test compound, 2 µl of Top1, 2 ul 10% SDS, 2 µl proteinase K, 2 µl DNA loading dye. After incubation of reaction mixtures at 37 °C for 30 min, electrophoresis was done on a 1% agarose gel at a potential 50 V for 75 min using 1xTAE buffer.
To determine whether the DNA intercalation properties of compounds 5a, 5b, 5d, 5e, 5k, 5l, 5n and 5o might result in Topo I inhibition, agarose gel electrophores is assay was performed to evaluate the Topo I inhibitory activity of them via agarose-gel electrophoresis and CPT was used as the positive control. The TopoGEN Topoisomerase I Drug Screening Kit were optimised and implemented to accomplish this goal.
In a previous studies, it was said that the compounds poisoning topoisomerase caused the formation of nick bands in such gel appearances, while the formation of Supercoiled bands was said to be caused by catalytic inhibitors that bound to either DNA or enzyme[40]^,[41].

Row | melting point | Topo I inhibition activity (Topoisomerase I) | Compound | IC50 [1] | IC50 [2] | IC50 [3] | IC50 [4] | IC50 [5] | IC50 [6] | percentage of apoptosis (early + late apoptotic cells) (MCF-7 cell line)
1 | 118.7 to 120.3 °C | – | COc1ccc(-c2nc3ccc(-c4nnc(SCC(=O)N5CCN(c6ncccn6)CC5)o4)cc3[nH]2)cc1 [5j, 2-((5-(2-(4-Methoxyphenyl)-1H-benzo[d]imidazol-6-yl)-1,3,4-oxadiazol-2-yl)thio)-1–(4-(pyrimidin-2-yl)-piperazin-1-yl)-ethane-1-on] | ≥ 100 µM | ≥ 100 µM | ≥ 100 µM | ≥ 100 µM | ≥ 100 µM | – | –
2 | 271.1 to 273.4 °C | – | O=C(CSc1nnc(-c2ccc3nc(-c4ccc(O)cc4)[nH]c3c2)o1)N1CCN(c2ccccc2)CC1 [5c, 2-((5–(2-(4-Hydroxyphenyl)-1H-benzo[d]imidazol-6-yl)-1,3,4-oxadiazol-2-yl)thio)-1–(4-(phenyl) -piperazin-1-yl) -ethane-1-on] | ≥ 100 µM | ≥ 100 µM | ≥ 100 µM | 21.9 ± 0.991 µM | 20.3 ± 1.1 µM | 44.56 ± 0.221 µM | –
3 | 262.5 to 263.9 °C | – | CCOc1ccc(-c2nc3ccc(-c4nnc(SCC(=O)N5CCN(c6ccccc6)CC5)o4)cc3[nH]2)cc1 [5m, 2-((5-(2-(4-Ethoxyphenyl)-1H-benzo [d]imidazol-6-yl)-1,3,4-oxadiazol-2-yl)thio)-1–(4-(phenyl)-piperazin-1-yl)-ethane-1-on] | ≥ 100 µM | ≥ 100 µM | 32.2 ± 1.55 µM | ≥ 100 µM | ≥ 100 µM | 52.3 ± 2.51 µM | –
4 | – | potent topo I inhibition activity | CCOc1ccc(-c2nc3ccc(-c4nnc(SCC(=O)N5CCN(c6ncccn6)CC5)o4)cc3[nH]2)cc1 [5o, 2-((5-(2-(4-Ethoxyphenyl)-1H-benzo[d]imidazol-6-yl)-1,3,4-oxadiazol-2-yl)thio)-1–(4-(pyrimidine-2-yl)-piperazin-1-yl)-ethane-1-on] | – | 6.44 ± 0.287 µM | 25 ± 1.24 µM | 59.4 ± 2.59 µM | ≥ 100 µM | 44.1 ± 2.1 µM | 8.7%
5 | – | potent topo I inhibition activity | O=C(CSc1nnc(-c2ccc3nc(-c4ccc(O)cc4)[nH]c3c2)o1)N1CCN(c2ccccn2)CC1 [5d, 2-((5-(2-(4-Hydroxyphenyl)-1H-benzo[d]imidazol-6-yl)-1,3,4-oxadiazol-2-yl)thio)-1-(4-(pyridin-2-yl)-piperazin-1-yl)-ethane-1-on] | – | 9.15 ± 0.391 µM | 38.9 ± 1.92 µM | ≥ 100 µM | ≥ 100 µM | 720.6 ± 5.03 µM | 22.3%

Further lines, the molecule ahead of its results:

Row | Compound | melting point | Topo I inhibition activity (Topoisomerase I) | IC50 [1] | IC50 [2] | IC50 [3] | IC50 [4] | IC50 [5] | IC50 [6] | percentage of apoptosis (early + late apoptotic cells) (MCF-7 cell line)
6 | COc1ccc(-c2nc3ccc(-c4nnc(SCC(=O)N5CCN(C)CC5)o4)cc3[nH]2)cc1 [5f, 2-((5-(2-(4-Methoxyphenyl)-1H-benzo[d]imidazol-6-yl)-1,3,4-oxadiazol-2-yl)thio)-1–(4-methyl-piperazin-1-yl)-ethane-1-on] | 156.6 to 158.7 °C | – | ≥ 100 µM | ≥ 100 µM | ≥ 100 µM | ≥ 100 µM | ≥ 100 µM | – | –
7 | COc1ccc(-c2nc3ccc(-c4nnc(SCC(=O)N5CCN(c6ccccc6)CC5)o4)cc3[nH]2)cc1 [5h, 2-((5-(2-(4-Methoxyphenyl)-1H-benzo[d]imidazol-6-yl)-1,3,4-oxadiazol-2-yl)thio)-1–(4-(phenyl)-piperazin-1-yl)-ethane-1-on] | 166.7 to 169.2 °C | – | ≥ 100 µM | ≥ 100 µM | ≥ 100 µM | ≥ 100 µM | ≥ 100 µM | – | –
8 | COc1ccc(-c2nc3ccc(-c4nnc(SCC(=O)N5CCN(c6ccccn6)CC5)o4)cc3[nH]2)cc1 [5ı, 2-((5-(2-(4-Methoxyphenyl)-1H-benzo[d]imidazol-6-yl)-1,3,4-oxadiazol-2-yl)thio)-1–(4-(pyridin-2-yl)-piperazin-1-yl)-ethane-1-on] | 168.3 to 170.1 °C | – | ≥ 100 µM | ≥ 100 µM | ≥ 100 µM | ≥ 100 µM | ≥ 100 µM | – | –
9 | CCN1CCN(C(=O)CSc2nnc(-c3ccc4nc(-c5ccc(OC)cc5)[nH]c4c3)o2)CC1 [5g, 2-((5-(2-(4-Methoxyphenyl)-1H-benzo[d]imidazol-6-yl)-1,3,4-oxadiazol-2-yl)thio)-1–(4-ethyl-piperazin-1-yl)-ethane-1-on] | 180.4 to 181.9 °C | – | ≥ 100 µM | ≥ 100 µM | ≥ 100 µM | ≥ 100 µM | ≥ 100 µM | – | –
10 | CCOc1ccc(-c2nc3ccc(-c4nc5cc(N6CCN(C)CC6)ccc5[nH]4)cc3[nH]2)cc1 [Hoechst 33342, reference compound] | – | – | – | 2.4 ± 0.118 µM | – | 27.8 ± 1.19 µM | 0.306 ± 0.015 µM | 7.39 ± 0.269 µM | –

Reference: article PMC7470102, “Synthesis, anticancer evaluation and molecular docking studies of new benzimidazole- 1,3,4-oxadiazole derivatives as human topoisomerase types I poison” (Journal of Enzyme Inhibition and Medicinal Chemistry, 2020)
